From ChEMBL document CHEMBL5360538, “Recent updates on 1,2,3-triazole-containing hybrids with in vivo therapeutic potential against cancers: A mini-review” (Eur J Med Chem, 2023) come the findings set out here.

Data set [1] deals with MCF7. Briefly: Antiproliferative activity against human MCF7 cells assessed as inhibition of cell growth incubated for 48 hrs by MTT assay. The class given is functional, cell-based. Conditions: MCF7, 48 h.
The test system of data set [2] is LA7. Briefly: Antitumor activity against rat LA7 cells xenografted in mouse assessed as inhibition of tumor growth at 5 mg/kg, po administered daily for 21 days relative to control. The class given is functional. Conditions: LA7, 504 h, time 21 day.
The subject of data set [3] is LA7. Briefly: Antiproliferative activity against rat LA7 cells assessed as inhibition of cell growth incubated for 48 hrs by MTT assay. Conditions: LA7, 48 h. It is filed as functional, cell-based.
In another data set the test system is KYSE-450. Kind of data set: Antitumor activity against human KYSE-450 cells xenografted in nu/nu nude mouse model assessed as inhibition of tumor growth at 25 mg/kg, ip administered every day for 15 days relative to control. Conditions: KYSE-450, 360 h, time 15 day. The class given is functional.
In a further data set the test system is NCI-H1650. Kind of data set: Antiproliferative activity against drug-sensitive human NCI-H1650 cells assessed as inhibition of cell growth incubated for 48 hrs by MTT assay. The class given is functional, cell-based. Conditions: NCI-H1650, 48 h, pooled result: one value given for 9 cell lines, strains, targets or settings.
In data set [4] the test system is A549. Kind of data set: Antiproliferative activity against human A549 cells assessed as inhibition of cell growth by MTT assay. The class given is functional, cell-based.
A further data set relates to SGC-7901. Kind of data set: Antiproliferative activity against human SGC-7901 cells assessed as inhibition of cell growth by MTT assay. It is filed as functional, cell-based.
For the next data set, the system named is MGC-803. Briefly: Antitumor activity against human MGC-803 cells xenografted in SCID mouse model assessed as inhibition of tumor growth at 50 mg/kg, po relative to control. It is filed as functional.
In data set [5] the test system is A549. Kind of data set: Antitumor activity against human A549 cells xenografted in zebrafish model assessed as reduction in tumor focal area at 2.5 uM relative to control. It is filed as functional. Also on record: scale not given: the % may be the effect or the level left.
A short description of data set [6]: Plasma clearance in Albino mouse at 1.0 mg/kg, iv. The class given is ADME, organism-based.
A short description of data set [7]: Antiproliferative activity against human Trastuzumab-resistant BT-474 cells assessed as inhibition of cell growth by MTT assay. The class given is functional, cell-based, Trastuzumab-resistant BT-474 cell.
The test system of data set [8] is MCF7. Briefly: Antiproliferative activity against drug-sensitive human MCF7 cells assessed as inhibition of cell growth by MTT assay. The class given is functional, cell-based.
Data set [9] in a line: Antiproliferative activity against human Tamoxifen-resistant MCF7 cells assessed as inhibition of cell growth by MTT assay. It is filed as functional, cell-based.
Another data set has as its system SK-BR-3. Briefly: Antiproliferative activity against drug-sensitive human SK-BR-3 cells assessed as inhibition of cell growth by MTT assay. It is filed as functional, cell-based.
A short description of data set [10]: AUC(0 to t) in Albino mouse at 1.0 mg/kg, iv. Conditions: in vivo. The class given is ADME, organism-based. More on the design: dose 1 mg/kg, route iv.
Data set [11] relates to MDA-MB-231. Briefly: Antiproliferative activity against drug-sensitive human MDA-MB-231 cells assessed as inhibition of cell growth by MTT assay. It is filed as functional, cell-based.
Data set [12] has as its system MCF7. Briefly: Antitumor activity against human MCF7 cells xenografted in mouse assessed as tumor growth inhibition by measuring T/C ratio at 25 mg/kg, iv. The class given is functional.
Data set [13] can be described thus: Elimination half life in Albino mouse plasma at 1.0 mg/kg, iv. The class given is ADME, organism-based. Conditions: read-out: beta t1/2 (converted).
The next data set relates to BT-474. Briefly: Antiproliferative activity against drug-sensitive human BT-474 cells assessed as inhibition of cell growth by MTT assay. The class given is functional, cell-based.
In data set [14] the test system is MDA-MB-231. Kind of data set: Antiproliferative activity against human MDA-MB-231 cells assessed as inhibition of cell growth incubated for 48 hrs by MTT assay. The class given is functional, cell-based. Conditions: MDA-MB-231, 48 h.
The test system of another data set is Ehrlich. Kind of data set: Antitumor activity against mouse EAC cells implanted in Swiss albino mouse assessed as tumor growth inhibition at 5.0 mg/kg, ip administered alternate days for 10 days relative to control. It is filed as functional. Conditions: 240 h, time 10 day, read-out: TGI.
For data set [15], the system named is MDA-MB-231. Kind of data set: Antiproliferative activity against human MDA-MB-231 cells assessed as inhibition of cell growth incubated for 120 hrs by MTT assay. It is filed as functional.
Data set [16] concerns MDA-MB-435. Briefly: Antitumor activity against GFP tagged bone metastatic variant of human MDA-MB-435 cells xenografted in athymic nu/nu mouse assessed as reduction in tumor growth at 10 mg/kg, ip administered thrice a week for 65 days relative to control. The class given is functional. Also on record: scale not given: the % may be the effect or the level left. Conditions: time 65 day.

Data set [17] relates to MDA-MB-435. Briefly: Antitumor activity against GFP tagged bone metastatic variant of human MDA-MB-435 cells xenografted in athymic nu/nu mouse assessed as reduction in tumor growth at 1 mg/kg, ip administered thrice a week for 65 days relative to control. The class given is functional. Conditions: time 65 day. Also on record: scale not given: the % may be the effect or the level left.

Data set [18] can be described thus: Inhibition of Rac activation in human MDA-MB-231 cells treated for 24 hrs by Western blot analysis. The class given is cell-based.
Data set [19] relates to A549. Kind of data set: Antiproliferative activity against human A549 cells assessed as inhibition of cell growth incubated for 48 hrs by MTT assay. The class given is functional, cell-based. Conditions: A549, 48 h.
For the next data set, the system named is NCI-H460. Briefly: Antiproliferative activity against human NCI-H460 cells assessed as inhibition of cell growth incubated for 48 hrs by MTT assay. It is filed as functional, cell-based. Conditions: NCI-H460, 48 h.
Data set [20] has as its system A549. Kind of data set: Antitumor activity against human A549 cells xenografted in nude mouse model assessed as inhibition of tumor growth at 1.0 mg/kg, sc administered every three or four days for 4 weeks relative to control. Conditions: A549, 672 h. The class given is functional.

As for `O=C1/C(=C/c2ccccc2F)CN(Cc2cn(Cc3ccc(F)cc3)nn2)C/C1=C\c1ccccc1F`, the half-inhibitory concentration (IC50) came out at 2100 nM in the data set on MCF7 [1] and 3100 nM in the data set on LA7 [3]. Besides, the inhibition in vivo at 5 mg/kg with LA7 [2] stood at 80%.
For the molecule `FC(F)(F)c1ccc(-n2cc(-c3cccc(Nc4ncnc5cc6c(cc45)OCCOCCOCCO6)c3)nn2)cc1`, in the data set on KYSE-450, the inhibition in vivo at 25 mg/kg was 25%. Also, the 50% inhibitory concentration (IC50) with NCI-H1650 is 3260 nM.
On the same counts, the results for `C#Cc1cccc(Nc2ncnc3cc4c(cc23)OCCOCCOCCO4)c1` [ICOTINIB] are 15% and over 19200 nM.
Regarding `COc1cc2c(c(OC)c1OC)-c1ccc(OC)c(=O)cc1[C@@H](NC(C)=O)CC2` [COLCHICINE], the concentration for half-maximal inhibition (IC50) with A549 [4] and in the data set on SGC-7901 was 43 nM throughout.
As to `COc1ccc(-n2cc(CN3c4ccccc4Sc4ccccc43)nn2)c([N+](=O)[O-])c1`, the inhibition in vivo at 50 mg/kg in the data set on MGC-803 was 70.1%.
As to `COc1cc2ncnc(Nc3ccc(F)c(Cl)c3)c2cc1OCCCN1CCOCC1` [GEFITINIB], the Activity in the data set with A549 [5] came to 18.95%.
Regarding `O=C1CCCC2=C1C(c1cn(-c3ccc(Cl)cc3)nn1)C1=C(CCCC1=O)N2`, in data set [6], the clearance is 15.4 mL/min/kg. Also, the half-maximal inhibitory concentration (IC50) (in [7]; in the data set with MCF7 [8]; in data set [9]; with SK-BR-3; in the data set with MDA-MB-231 [11]; in the data set on BT-474) was 153 nM throughout. Also, the AUC(0-t) in [10] is 232 ng·h/mL. Besides, the T/C with MCF7 [12] was determined as 0.2. Further, the half-life in data set [13] is 8.1 h.
As to `NS(=O)(=O)NCCNC(=O)c1n[nH]nc1-c1ccc(F)c(F)c1`, the IC50 in the data set with MDA-MB-231 [14] amounted to 77 nM. For the same molecule, the inhibition in vivo at 5 mg/kg with Ehrlich was over 80%.
Regarding `CCn1c2ccccc2c2cc(-n3nncc3-c3ccccc3)ccc21` [MBQ-167], the GI50 in the data set with MDA-MB-231 [15] was determined as 130 nM. The Activity in the data set on MDA-MB-435 [16] amounted to 95%; in the data set on MDA-MB-435 [17], 80%. Further, half-maximal inhibition in [18] (IC50) required 103 nM.
For `COc1ccc2c(c1)OCC(=O)N2Cc1cn(Cc2ccccc2)nn1`, the IC50 with A549 [19] and with NCI-H460 was under 8000 nM each time. Further, in the data set on A549 [20], the inhibition in vivo at 1 mg/kg was found to be 60%.
